Values of other authors, collected in PMC8985968, “Purification and characterization of antifungal lipopeptide produced by Bacillus velezensis isolated from raw honey” (PLoS ONE, 2022).

What was measured:
[1] = tested on: Aspergillus, Fusarium, Chrysosporium, Candida albicans, Trichosporium, Alternaria, and Cladosporium; conditions: isolated from crude extract of B. subtilis
Excerpt: In a study by Pathak and Keharia (2014), iturin isomers and surfactin families were isolated from crude extract of B. subtilis. […] Similar t ...

mouse models = tested on: mouse models
Method: The safety of the producer strains and their products need to be evaluated to achieve broader application of iturin A produced by Bacillus species. […] B. velezensis FZB42 type strain, which is closely related to our isolates, was also evaluated by US Environmental Protection Agency (EPA) and considered n ...

Substance: Iturin A2
- Antifungal spectrum [1]: broad spectrum antifungal activities

Substance: iturin
- Acute toxicity test (mouse models; intragastric, 7-day, 5000 mg/kg, no significant damage to liver, kidney, or small intestines): safe and non-toxic
- Subacute toxicity test (mouse models; intragastric, 28-day, 2000 mg/kg, no significant damage to liver, kidney, or small intestines): safe and non-toxic

Substance: iturin A
- Organ-specific toxicity after discontinuation of treatment (mouse models; mouse models): reversible
- Tissue deposition of iturin A (mouse models; mouse models): deposited in liver, lung, and spleen
- Toxicity of iturin A in mouse models (mouse models; preliminary toxicology study, acute and subacute): can induce hepatotoxicity

Substance: Iturin A3/A4/A5
- Antifungal spectrum [1]: broad spectrum antifungal activities
